Experimental data from patent US20240264150A1, “METHODS FOR ASSIGNING A PHENOTYPIC SIGNATURE FOR DIAGNOSTIC AND THERAPEUTIC APPLICATIONS” (DEUTSCHES ZENTRUM FÜR NEURODEGENERATIVE ERKRANKUNGEN E.V. …, priority 2020, published 2024).

Assays:
Format in all cases: cell-based, human
[1] = tested on: inflammasome activation by LPS+ATP; assay: Benchmark experiment, present assay platform (HTRF cytokine release plus image-based multi-parametric readouts), LPS priming and LPS+ATP activation; settings: for TNFa-positive cells percentage: LPS and LPS_Activator conditions, vs DMSO; for inflammasome activation / percentage of IL1beta-positive cells / IL1beta release: LPS+ATP (LPS_Activator); for IL1beta release: vs DMSO control
Text: (§1) FIG. 24: Added-Value-1. Higher precision and accuracy of the present technology compared to Luminex cytokine assays. We tested the IL1beta- and TNFalpha release performance on the present assay platform (integrated as HTRF assays from cisbio/PerkinElmer into the inventive workflow) (B) in comparison to the Luminex cytokine assay technology (A). […] (2) Due to its higher precision and accuracy, the inventive technology allowed to disclose distinct compound (Cmpd) effects on donor-specific responses which was not achieved by the Luminex technology despite its higher nominal assay ranges as indicated by the upper and lower LoD's (tables on the left in A, B). (3) Despite higher nominal assay ranges of Luminex cytokine tests compared to present technology cytokine release LoD's (dotted lines), donor-specific response ranges were solely resolved by the inventive technology and could not be identified by the Luminex assay. (4) Despite higher nominal assay ranges of Luminex cytokine tests compared to present technology cytokine release LoD's, the inventive technology covered a larger assay window as indicated by the ovals on the TNFa-release box plot y-axes in (A) and (B).
(§2) To benchmark the inventive technology in the context of established state-of-the-art cytokine assays in the field of innate immune response analyses, a product benchmarking experiment was conducted. Towards this end, a 34-plex, off-the-shelf Luminex cytokine assay kit was tested in comparison to the present assay platform which in this embodiment integrates cytokine release data with image-based readout analyses leading to increased knowledge and added scientific value.
(§3) In the benchmarking experiment, innate immune reactions were assessed by classical cytokine release assays, i.e. the Luminex assay technology, and compared to the present platform which allows an in-depth analysis of immune responses by the combination and integration of cytokine release data and image-based multi-parametric readouts. Since the present assay platform represents a functional assay, the following conditions were analyzed, untreated, LPS-priming and priming-activation by LPS+ATP. Furthermore, the effects of selected reference compounds on the innate immune responses were tested, i.e. CRID3/MCC950 (NLRP3 inflammasome inhibitor), P22077 (ubiquitin protease inhibitor), 4SC202/Domatinostat (class 1 HDAC inhibitor), MI-2 (MALT1 inhibitor, NLRP3 inhibitor), A438079 (P2X7 receptor antagonist), VX-765 (CASP1 inhibitor) and Z-VAD-OH-FMK (pan-CASP inhibitor). The selection of the reference compounds was based on compound-specific effects on captured phenotypes obtained by the present technology (Table 3). Captured phenotypes obtained by multi-parametric and image-based readout constitute an added value provided by the present technology.

[2] = tested on: inflammasome activation by LPS+ATP; assay: Benchmark experiment, 34-plex Luminex cytokine assay; settings: for IL1b release (Luminex): LPS+ATP
Text: as §1, §2, §3

[3] = tested on: PBMC; assay: De-risking of cyclooxygenase (COX)-modulators (pain-killers) in the PBMC test system: image-based and supernatant cytokine readouts; settings: for alteration of the collective phenotypic signature: 54 COX-modulators, three independent experiments, normalized to untreated control
Experimental: 54 pain-killers were tested in three independent experiments. […] The results were normalized to the untreated control group. Image-based assay read outs: a) “Active”, ratio of cells presenting mounted inflammasome, b) “TNFaPosRate”, ratio of cells showing intracellular TNFalpha expression, c) “TNFa specs/cell”, number of TNFalpha spots within TNFalpha positive cells, d) “Cells”, total number of cells. Homogenous assay read outs: e) “TNFa see”, TNFalpha concentration in the supernatant in ng/ml, f) “IL1b”, IL1beta concentration in the supernatant in ng/ml.
54 compounds were tested, which are known as cyclooxygenase (COX)-Modulators. Most of the compounds were already on market or in drug development process. A unique collective phenotypic signature of this drug class was identified. There was no alteration of assay parameters, meaning that common Cox-modulators should have no effect on the innate immune response in the test system provided by the present invention. […] Bufexamac was withdrawn from market 2010 due to allergic reaction and was further proposed in 2017 as co-treatment agent (TNFa binder) for modulators of TNFa synthesis. […] Xanthohumol, a chalcone isolated from Humulus lupus, is currently in clinical trial phase 1. Currently, there is no information about induced adverse effects.
The adverse effects of all three compounds were not identified during the safety/toxicity assessment in preclinical lead optimization or in clinical trials. Current safety testing during preclinical drug development was not able to detect the adverse modulation of innate immune response.

Compound	inflammasome activation ([1]; image-based)	percentage of IL1beta-positive cells ([1]; image-based)	IL1beta release [1]	IL1b release (Luminex) [2]	alteration of the collective phenotypic signature [3]	also measured
Clc1cccc(-c2nnnn2Cc2cccnc2)c1Cl [A-438079]	complete block	marked increase	block	block		TNFa-positive cells percentage [1]: no impact
CCCCOc1ccc(CC(=O)NO)cc1 [Bufexamac]					show alteration of the collective phenotypic signature	TNFa binder effect [3]: effect was proofed
CC(C)(O)c1coc(S(=O)(=O)NC(=O)Nc2c3c(cc4c2CCC4)CCC3)c1 [CRID3, CRID3/MCC950]	complete block	marked increase	complete block	block		
COCCOc1nc(-c2ccc(Cl)c(Cl)c2)n(-c2ccc(NC(=O)CCl)cc2)n1 [MI-2]	complete block	marked increase	complete block	block		TNFa-positive cells percentage [1]: not affected; percentage of TNFa-multispot-positive cells ([1]; image-based): robust increase; TNFa release ([1]; present assay): partial block; TNFa release (Luminex) [2]: partial block of TNFa release with limited resolution
CC(C(=O)O)c1ccc(C(=O)c2cccs2)cc1 (centres unmarked) [Subrofen]					show alteration of the collective phenotypic signature	cytokine release (II. 1b) ([3]; supernatant): strong decrease
COc1cc(O)c(CC=C(C)C)c(O)c1C(=O)/C=C/c1ccc(O)cc1 [Xanthohumol]					show alteration of the collective phenotypic signature	
Z-VAD-OH-FMK	did not show any effect	low percentage	block	block		
